*1 amine or outer side, *2 acyl side, *3 side chain or, on linkers, in order; H or OH if unused. Where a SMILES comes first, the peptide text is derived from it. Bridges are numbered along the chain shown (N, C = ends). [ ]: non-standard residue; d: D form. The star is where a group is joined. hPhe(3-Cl-4-CF3) = N[C@@H](CCc1ccc(C(F)(F)F)c(Cl)c1)C(=O)O; NEtPhe(4-CF3) = CCN[C@@H](Cc1ccc(C(F)(F)F)cc1)C(=O)O; NEtPhe(4-Me) = CCN[C@@H](Cc1ccc(C)cc1)C(=O)O; NMePhe(4-Me) = CN[C@@H](Cc1ccc(C)cc1)C(=O)O; X30 = CCN([C@H](C(=O)[*:2])C1CCCC1)[*:1]; NMeGly(cPent) = CN[C@H](C(=O)O)C1CCCC1; Hyp = O=C(O)[C@@H]1C[C@@H](O)CN1; NMeF = CN[C@@H](Cc1ccccc1)C(=O)O; NMeD = CN[C@@H](CC(=O)O)C(=O)O; NMeL = CN[C@@H](CC(C)C)C(=O)O; NMeV = CN[C@H](C(=O)O)C(C)C; Morpholide = C1CN(*)CCO1; NMeA = CN[C@@H](C)C(=O)O; Ac5c = NC1(C(=O)O)CCCC1; Aze = O=C(O)[C@@H]1CCN1; NEtG = CCNCC(=O)O; Sar = CNCC(=O)O
How the values were obtained:
[1] = biological target: GDP-bound NRAS wild-type protein (Homo sapiens, UniProt P01111); test: Binding to NRAS by surface plasmon resonance (SPR), Single Cycle Kinetics; conditions: KD ratio NRAS/KRAS, SPR
Sequence of GDP-bound NRAS wild-type protein (P01111 whole entry): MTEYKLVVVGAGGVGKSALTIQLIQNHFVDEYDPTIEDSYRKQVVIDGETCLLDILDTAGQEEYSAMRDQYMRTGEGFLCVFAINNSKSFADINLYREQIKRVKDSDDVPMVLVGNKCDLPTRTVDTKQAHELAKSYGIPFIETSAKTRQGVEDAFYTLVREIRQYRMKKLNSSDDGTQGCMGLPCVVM

[2] = biological target: GDP-bound HRAS wild-type protein (Homo sapiens, UniProt P01112); test: Binding to HRAS by surface plasmon resonance (SPR), Single Cycle Kinetics; conditions: KD ratio HRAS/KRAS, SPR
Sequence of GDP-bound HRAS wild-type protein (P01112 whole entry): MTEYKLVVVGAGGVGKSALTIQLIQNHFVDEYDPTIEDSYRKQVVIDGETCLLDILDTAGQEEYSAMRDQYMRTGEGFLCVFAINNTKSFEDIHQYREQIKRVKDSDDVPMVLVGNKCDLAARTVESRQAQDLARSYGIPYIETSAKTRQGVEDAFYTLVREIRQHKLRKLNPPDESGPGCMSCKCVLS

Structure (SMILES): CC[C@H](C)[C@@H]1NC(=O)[C@H](CC(C)C)N(C)C(=O)C[C@@H](C(=O)N2CCOCC2)N(C)C(=O)[C@H](C2CCCC2)N(C)C(=O)C2(CCCC2)NC(=O)[C@@H]2CCCN2C(=O)[C@H](CCc2ccc(C(F)(F)F)c(Cl)c2)NC(=O)CN(C)C(=O)[C@H](Cc2ccc(C(F)(F)F)cc2)N(CC)C(=O)[C@@H]2CCN2C(=O)[C@H](C)N(C)C1=O [PP0002] ([NMeL]I[NMeA][Aze][NEtPhe(4-CF3)][Sar][hPhe(3-Cl-4-CF3)]P[Ac5c][NMeGly(cPent)][NMeD]-Morpholide; lactam N-11)
- NRAS/KRAS (ratio of KD for GDP-bound NRAS wild-type to KD for KRAS) [1]: C (A compound having a KD ratio of 0.1 or more and less than 3 is denoted as C)
- HRAS/KRAS (ratio of KD for GDP-bound HRAS wild-type to KD for KRAS) [2]: C (A compound having a KD ratio of 0.1 or more and less than 3 is denoted as C)

Structure (SMILES): CC[C@H](C)[C@@H]1NC(=O)[C@H](CC(C)C)N(C)C(=O)C[C@@H](C(=O)N2CCOCC2)N(C)C(=O)[C@H](C2CCCC2)N(C)C(=O)C2(CCCC2)NC(=O)[C@@H]2CCCN2C(=O)[C@H](CCc2ccc(C(F)(F)F)c(Cl)c2)NC(=O)CN(C)C(=O)[C@H](C2CCCC2)N(CC)C(=O)[C@@H]2CCN2C(=O)[C@H](C)N(C)C1=O [PP0003] ([NMeL]I[NMeA][Aze][X30][Sar][hPhe(3-Cl-4-CF3)]P[Ac5c][NMeGly(cPent)][NMeD]-Morpholide; lactam N-11)
- NRAS/KRAS (ratio of KD for GDP-bound NRAS wild-type to KD for KRAS) [1]: C (A compound having a KD ratio of 0.1 or more and less than 3 is denoted as C)
- HRAS/KRAS (ratio of KD for GDP-bound HRAS wild-type to KD for KRAS) [2]: C (A compound having a KD ratio of 0.1 or more and less than 3 is denoted as C)

Structure (SMILES): CC[C@H](C)[C@@H]1NC(=O)[C@H](CC(C)C)N(C)C(=O)C[C@@H](C(=O)N2CCOCC2)N(C)C(=O)[C@H](C2CCCC2)N(C)C(=O)C2(CCCC2)NC(=O)[C@@H]2CCCN2C(=O)[C@H](CCc2ccc(C(F)(F)F)c(Cl)c2)NC(=O)CN(CC)C(=O)[C@H](Cc2ccc(C)cc2)N(C)C(=O)[C@@H]2CCN2C(=O)[C@H](C)N(C)C1=O [PP0004] ([NMeL]I[NMeA][Aze][NMePhe(4-Me)][NEtG][hPhe(3-Cl-4-CF3)]P[Ac5c][NMeGly(cPent)][NMeD]-Morpholide; lactam N-11)
- NRAS/KRAS (ratio of KD for GDP-bound NRAS wild-type to KD for KRAS) [1]: C (A compound having a KD ratio of 0.1 or more and less than 3 is denoted as C)
- HRAS/KRAS (ratio of KD for GDP-bound HRAS wild-type to KD for KRAS) [2]: C (A compound having a KD ratio of 0.1 or more and less than 3 is denoted as C)

Structure (SMILES): CC[C@H](C)[C@@H]1NC(=O)[C@H](CC(C)C)N(C)C(=O)C[C@@H](C(=O)N2CCOCC2)N(C)C(=O)[C@H](C2CCCC2)N(C)C(=O)C2(CCCC2)NC(=O)[C@@H]2CCCN2C(=O)[C@H](CCc2ccc(C(F)(F)F)c(Cl)c2)NC(=O)CN(CC)C(=O)[C@H](Cc2ccc(C)cc2)N(CC)C(=O)[C@@H]2CCN2C(=O)[C@H](C)N(C)C1=O [PP0006] ([NMeL]I[NMeA][Aze][NEtPhe(4-Me)][NEtG][hPhe(3-Cl-4-CF3)]P[Ac5c][NMeGly(cPent)][NMeD]-Morpholide; lactam N-11)
- NRAS/KRAS (ratio of KD for GDP-bound NRAS wild-type to KD for KRAS) [1]: C (A compound having a KD ratio of 0.1 or more and less than 3 is denoted as C)
- HRAS/KRAS (ratio of KD for GDP-bound HRAS wild-type to KD for KRAS) [2]: C (A compound having a KD ratio of 0.1 or more and less than 3 is denoted as C)

Structure (SMILES): CC[C@H](C)[C@@H]1NC(=O)[C@H](C)N(C)C(=O)C[C@@H](C(=O)N2CCOCC2)N(C)C(=O)[C@H](C2CCCC2)N(C)C(=O)C2(CCCC2)NC(=O)[C@@H]2CCCN2C(=O)[C@H](CCc2ccc(C(F)(F)F)c(Cl)c2)NC(=O)CN(C)C(=O)[C@H](Cc2ccc(C)cc2)N(CC)C(=O)[C@@H]2CCN2C(=O)[C@H](C)N(C)C1=O [PP0007] ([NMeA]I[NMeA][Aze][NEtPhe(4-Me)][Sar][hPhe(3-Cl-4-CF3)]P[Ac5c][NMeGly(cPent)][NMeD]-Morpholide; lactam N-11)
- NRAS/KRAS (ratio of KD for GDP-bound NRAS wild-type to KD for KRAS) [1]: C (A compound having a KD ratio of 0.1 or more and less than 3 is denoted as C)
- HRAS/KRAS (ratio of KD for GDP-bound HRAS wild-type to KD for KRAS) [2]: C (A compound having a KD ratio of 0.1 or more and less than 3 is denoted as C)

Structure (SMILES): CC[C@H](C)[C@@H]1NC(=O)[C@H](CC(C)C)N(C)C(=O)C[C@@H](C(=O)N2CCOCC2)N(C)C(=O)[C@H](C2CCCC2)N(C)C(=O)C2(CCCC2)NC(=O)[C@@H]2CCCN2C(=O)[C@H](CCc2ccc(C(F)(F)F)c(Cl)c2)NC(=O)CN(C)C(=O)[C@H](Cc2ccccc2)N(C)C(=O)[C@@H]2CCN2C(=O)[C@H](C)N(C)C1=O [PP0011] ([NMeL]I[NMeA][Aze][NMeF][Sar][hPhe(3-Cl-4-CF3)]P[Ac5c][NMeGly(cPent)][NMeD]-Morpholide; lactam N-11)
- NRAS/KRAS (ratio of KD for GDP-bound NRAS wild-type to KD for KRAS) [1]: C (A compound having a KD ratio of 0.1 or more and less than 3 is denoted as C)
- HRAS/KRAS (ratio of KD for GDP-bound HRAS wild-type to KD for KRAS) [2]: C (A compound having a KD ratio of 0.1 or more and less than 3 is denoted as C)

Structure (SMILES): CC[C@H](C)[C@@H]1NC(=O)[C@H](CC(C)C)N(C)C(=O)C[C@@H](C(=O)N2CCOCC2)N(C)C(=O)[C@H](C2CCCC2)N(C)C(=O)C2(CCCC2)NC(=O)[C@@H]2C[C@@H](O)CN2C(=O)[C@H](CCc2ccc(C(F)(F)F)c(Cl)c2)NC(=O)CN(C)C(=O)[C@H](Cc2ccc(C)cc2)N(CC)C(=O)[C@@H]2CCN2C(=O)[C@H](C)N(C)C1=O [PP0013] ([NMeL]I[NMeA][Aze][NEtPhe(4-Me)][Sar][hPhe(3-Cl-4-CF3)][Hyp][Ac5c][NMeGly(cPent)][NMeD]-Morpholide; lactam N-11)
- NRAS/KRAS (ratio of KD for GDP-bound NRAS wild-type to KD for KRAS) [1]: C (A compound having a KD ratio of 0.1 or more and less than 3 is denoted as C)
- HRAS/KRAS (ratio of KD for GDP-bound HRAS wild-type to KD for KRAS) [2]: C (A compound having a KD ratio of 0.1 or more and less than 3 is denoted as C)

Structure (SMILES): CCO[C@@H]1C[C@H]2C(=O)NC3(CCCC3)C(=O)N(C)[C@@H](C3CCCC3)C(=O)N(C)[C@H](C(=O)N3CCOCC3)CC(=O)N(C)[C@@H](CC(C)C)C(=O)N[C@@H]([C@@H](C)CC)C(=O)N(C)[C@@H](C)C(=O)N3CC[C@H]3C(=O)N(CC)[C@@H](Cc3ccc(C)cc3)C(=O)N(C)CC(=O)N[C@@H](CCc3ccc(C(F)(F)F)c(Cl)c3)C(=O)N2C1 [PP0014] ([NMeL]I[NMeA][Aze][NEtPhe(4-Me)][Sar][hPhe(3-Cl-4-CF3)][Hyp](Et)[Ac5c][NMeGly(cPent)][NMeD]-Morpholide; lactam N-11)
- NRAS/KRAS (ratio of KD for GDP-bound NRAS wild-type to KD for KRAS) [1]: C (A compound having a KD ratio of 0.1 or more and less than 3 is denoted as C)
- HRAS/KRAS (ratio of KD for GDP-bound HRAS wild-type to KD for KRAS) [2]: C (A compound having a KD ratio of 0.1 or more and less than 3 is denoted as C)

Structure (SMILES): CC[C@H](C)[C@@H]1NC(=O)[C@H](CC(C)C)N(C)C(=O)C[C@@H](C(=O)N2CCOCC2)N(C)C(=O)[C@H](C(C)C)N(C)C(=O)C2(CCCC2)NC(=O)[C@@H]2CCCN2C(=O)[C@H](CCc2ccc(C(F)(F)F)c(Cl)c2)NC(=O)CN(C)C(=O)[C@H](Cc2ccc(C)cc2)N(CC)C(=O)[C@@H]2CCN2C(=O)[C@H](C)N(C)C1=O [PP0015] ([NMeL]I[NMeA][Aze][NEtPhe(4-Me)][Sar][hPhe(3-Cl-4-CF3)]P[Ac5c][NMeV][NMeD]-Morpholide; lactam N-11)
- NRAS/KRAS (ratio of KD for GDP-bound NRAS wild-type to KD for KRAS) [1]: C (A compound having a KD ratio of 0.1 or more and less than 3 is denoted as C)
- HRAS/KRAS (ratio of KD for GDP-bound HRAS wild-type to KD for KRAS) [2]: C (A compound having a KD ratio of 0.1 or more and less than 3 is denoted as C)

Structure (SMILES): CC[C@H](C)[C@@H]1NC(=O)[C@H](CC(C)C)N(C)C(=O)C[C@@H](C(=O)N2CCOCC2)N(C)C(=O)[C@H](CC(C)C)N(C)C(=O)C2(CCCC2)NC(=O)[C@@H]2CCCN2C(=O)[C@H](CCc2ccc(C(F)(F)F)c(Cl)c2)NC(=O)CN(C)C(=O)[C@H](Cc2ccc(C)cc2)N(CC)C(=O)[C@@H]2CCN2C(=O)[C@H](C)N(C)C1=O [PP0016] ([NMeL]I[NMeA][Aze][NEtPhe(4-Me)][Sar][hPhe(3-Cl-4-CF3)]P[Ac5c][NMeL][NMeD]-Morpholide; lactam N-11)
- NRAS/KRAS (ratio of KD for GDP-bound NRAS wild-type to KD for KRAS) [1]: C (A compound having a KD ratio of 0.1 or more and less than 3 is denoted as C)
- HRAS/KRAS (ratio of KD for GDP-bound HRAS wild-type to KD for KRAS) [2]: C (A compound having a KD ratio of 0.1 or more and less than 3 is denoted as C)

Structure (SMILES): CC[C@H](C)[C@@H]1NC(=O)[C@H](CC(C)C)N(C)C(=O)C[C@@H](C(=O)N2CCOCC2)N(C)C(=O)[C@H](C2CCCC2)N(C)C(=O)C2(CCCC2)NC(=O)[C@@H]2CCCN2C(=O)[C@H](CCc2ccc(C(F)(F)F)c(Cl)c2)NC(=O)CN(C)C(=O)[C@H](Cc2ccc(C)cc2)N(C)C(=O)CN(C)C(=O)CN(C)C1=O [PP0018] ([NMeL]I[Sar][Sar][NMePhe(4-Me)][Sar][hPhe(3-Cl-4-CF3)]P[Ac5c][NMeGly(cPent)][NMeD]-Morpholide; lactam N-11)
- NRAS/KRAS (ratio of KD for GDP-bound NRAS wild-type to KD for KRAS) [1]: C (A compound having a KD ratio of 0.1 or more and less than 3 is denoted as C)
- HRAS/KRAS (ratio of KD for GDP-bound HRAS wild-type to KD for KRAS) [2]: C (A compound having a KD ratio of 0.1 or more and less than 3 is denoted as C)

Structure (SMILES): CC[C@H](C)[C@@H]1NC(=O)[C@H](CC(C)C)N(C)C(=O)C[C@@H](C(=O)N2CCOCC2)N(C)C(=O)[C@H](C2CCCC2)N(C)C(=O)C2(CCCC2)NC(=O)[C@@H]2CCCN2C(=O)[C@H](CCc2ccc(C(F)(F)F)c(Cl)c2)NC(=O)CN(C)C(=O)[C@H](Cc2ccc(C)cc2)N(C)C(=O)CN(CC)C(=O)CN(C)C1=O [PP0019] ([NMeL]I[Sar][NEtG][NMePhe(4-Me)][Sar][hPhe(3-Cl-4-CF3)]P[Ac5c][NMeGly(cPent)][NMeD]-Morpholide; lactam N-11)
- NRAS/KRAS (ratio of KD for GDP-bound NRAS wild-type to KD for KRAS) [1]: C (A compound having a KD ratio of 0.1 or more and less than 3 is denoted as C)
- HRAS/KRAS (ratio of KD for GDP-bound HRAS wild-type to KD for KRAS) [2]: C (A compound having a KD ratio of 0.1 or more and less than 3 is denoted as C)

— patent US20250230193A1, “CYCLIC COMPOUND HAVING SELECTIVE KRAS INHIBITORY EFFECT ON HRAS AND NRAS” (CHUGAI SEIYAKU KABUSHIKI KAISHA, priority 2022, published 2025)
